From patent US20260053811A1, “METHODS OF TREATING HYPERTENSION IN OBESE SUBJECTS” (Mineralys Therapeutics, Inc., priority 2022, published 2026)

Test system: hypertensive subjects
Experiment: Seated automated office blood pressure (AOBP) in randomized, placebo-controlled, dose-ranging study
Type: in vivo, human
Details: for Placebo-adjusted reduction in AOBP SBP, exploratory MMRM analysis by BMI: data not shown; for Mean (SD) Automated Office-Measured Systolic Blood Pressure at Wk 8 / Mean (SD) Change from Baseline at Week 8 in Automated Office-Measured Systolic Blood Pressure / Mean (SD) Automated Office-Measured Diastolic Blood Pressure at Wk 8 / Mean (SD) Change from Baseline at Week 8 in Automated Office-Measured Diastolic Blood Pressure: Part 1, 12.5 mg BID
Experimental: A randomized, double-blinded, placebo-controlled, dose-ranging, multicenter study was conducted to evaluate the effect of orally administered Compound A HBr on blood pressure for the treatment of hypertension in male and female subjects ≥18 years of age.
The study consists of two parts. For enrollment into Part 1 of the study, a subject's value of plasma renin activity (PRA) must be ≤1 ng/mL/h based on morning measurement. If the value of PRA >1 ng/mL/h based on morning measurement, then subjects may be eligible to enter Part 2 of the study.
For Part 1, 163 enrolled subjects ≥18 years of age were randomized into 6 equal treatment groups (1:1:1:1:1:1) to 12.5 mg BID, 25 mg BID, 12.5 mg QD, 50 mg QD, 100 mg QD, or placebo. After a review of interim clinical data, the 2 lowest dose levels (12.5 mg QD and 12.5 mg BID) were stopped for future randomization due to a lack of consistent meaningful reduction of blood pressure, but the patients randomized to that point remained in the study through completion. Thus, after the review of interim clinical data, subjects were randomized into 4 equal treatment groups (1:1:1:1) to 25 mg BID, 50 mg QD, 100 mg QD, or placebo.
For Part 2, 36 enrolled subjects ≥18 years of age were randomized (5:1) to either 100 mg QD Compound A HBr or placebo such that the Compound A HBr treatment group consisted of approximately 30 subjects and the placebo treatment group will consist of approximately 6 subjects.
Subjects orally administered the assigned study drug (Compound A HBr or placebo) according to the assigned dosing regimen for 8 weeks beginning on Study Day 1. All subjects in Part 1 (regardless of dosing group) received BID dosing to preserve the integrity of the blind; active drug is administered as the morning dose for all QD dose groups. Subjects returned to the research facility or were seen by the clinical investigator or approved home health care professional at the end of Study Weeks 1, 2, 3, 4, 5, 6, 7, and 8 (±2 days) for protocol-defined efficacy and safety assessments and procedures, assessment of adverse events (AEs), and confirmation of compliance with study drug usage. Subjects also completed a telephone visit and blood pressure (BP) check at home approximately 3 days post last dose of study drug. Subjects attended up to 14 full clinic visits, including a pre-Screening visit, a Screening/start of Placebo Run-in visit, a second visit during Placebo Run-in, a clinic visit to initiate the ABPM procedure, a Randomization visit, 8 weekly visits during double-blind treatment, and an end-of-study visit scheduled 4 weeks after the last study treatment for final efficacy and safety assessments.
An automated oscillometric sphygmomanometer device was used to measure the subjects' systolic and diastolic blood pressure in office after approximately 5 minutes of rest in the seated position.
The primary endpoint is the change in office-measured (mean of last 2 of 5 unattended measurements using an automated oscillometric sphygmomanometer device after approximately 5 minutes of rest in the seated position) systolic blood pressure (SBP) from baseline to the end of Study Week 8.
Secondary endpoints of this study were: • (a) Change in 24-hour ambulatory blood pressure monitoring (ABPM) parameters (systolic and diastolic) from baseline to the end of Study Week 7. • (b) Change in office-measured SBP from baseline to the end of Study Weeks 1, 2, 3, 4, 5, 6, and 7. • (c) Change in office-measured diastolic blood pressure (DBP) from baseline to the end of Study Weeks 1, 2, 3, 4, 5, 6, 7, and 8. • (d) Proportion of subjects who achieve office-measured BP of ≤130/80 mm Hg by the end of Study Week 8.

CC(=O)N[C@H]1CC[C@H](NC(=O)CN2CCN(c3nncc(-c4ccc(C)cc4)n3)CC2)CC1 [Compound A HBr]
Subjects with seated AOBP SBP/DBP ≤130/80 mmHg: No (100 mg QD, Week 8, Part 2, FAS): 14 (45.2) n (%)
Subjects with seated AOBP SBP/DBP ≤130/80 mmHg: Yes (100 mg QD, Week 8, Part 2, FAS): 17 (54.8) n (%)
Placebo-adjusted reduction in AOBP SBP, exploratory MMRM analysis by BMI (Part 1 50 mg QD cohort): −16.7 mmHg
Placebo-adjusted reduction in AOBP SBP, exploratory MMRM analysis by BMI (Part 1 100 mg QD cohort): −12.3 mmHg
Mean (SD) Automated Office-Measured Systolic Blood Pressure at Wk 8 (ACEi/ARB No): 131.50 (16.22) mmHg
Mean (SD) Change from Baseline at Week 8 in Automated Office-Measured Systolic Blood Pressure (ACEi/ARB No): −18.75 (21.77) mmHg
Mean (SD) Automated Office-Measured Systolic Blood Pressure at Wk 8 (ACEi/ARB Yes): 132.00 (12.59) mmHg
Mean (SD) Change from Baseline at Week 8 in Automated Office-Measured Systolic Blood Pressure (ACEi/ARB Yes): −12.47 (17.09) mmHg
Mean (SD) Automated Office-Measured Diastolic Blood Pressure at Wk 8 (ACEi/ARBs No): 76.25 (12.37) mmHg
Mean (SD) Change from Baseline at Week 8 in Automated Office-Measured Diastolic Blood Pressure (ACEi/ARBs No): −4.00 (8.79) mmHg
Mean (SD) Automated Office-Measured Diastolic Blood Pressure at Wk 8 (ACEi/ARBs Yes): 74.93 (9.86) mmHg
Mean (SD) Change from Baseline at Week 8 in Automated Office-Measured Diastolic Blood Pressure (ACEi/ARBs Yes): −6.33 (9.02) mmHg
Mean (SD) Automated Office-Measured Diastolic Blood Pressure at Wk 8 (AHTs 2): 79.67 (11.78) mmHg
Mean (SD) Automated Office-Measured Systolic Blood Pressure at Wk 8 (AHTs 2): 136.33 (11.76) mmHg
Mean (SD) Change from Baseline at Week 8 in Automated Office-Measured Diastolic Blood Pressure (AHTs 2): −5.25 (7.78) mmHg
Mean (SD) Change from Baseline at Week 8 in Automated Office-Measured Systolic Blood Pressure (AHTs 2): −8.33 (13.28) mmHg
Mean (SD) Automated Office-Measured Diastolic Blood Pressure at Wk 8 (AHTs ≥3): 73.15 (8.93) mmHg
Mean (SD) Automated Office-Measured Systolic Blood Pressure at Wk 8 (AHTs ≥3): 129.85 (13.37) mmHg
Mean (SD) Change from Baseline at Week 8 in Automated Office-Measured Diastolic Blood Pressure (AHTs ≥3): −6.12 (9.49) mmHg
Mean (SD) Change from Baseline at Week 8 in Automated Office-Measured Systolic Blood Pressure (AHTs ≥3): −16.31 (19.35) mmHg
Mean (SD) Automated Office-Measured Diastolic Blood Pressure at Wk 8 (Age 65-79 yr): 76.18 (7.87) mmHg
Mean (SD) Automated Office-Measured Systolic Blood Pressure at Wk 8 (Age 65-79 yr): 135.73 (11.26) mmHg
Mean (SD) Change from Baseline at Week 8 in Automated Office-Measured Diastolic Blood Pressure (Age 65-79 yr): −3.18 (7.91) mmHg
Mean (SD) Change from Baseline at Week 8 in Automated Office-Measured Systolic Blood Pressure (Age 65-79 yr): −12.77 (19.08) mmHg
Mean (SD) Automated Office-Measured Diastolic Blood Pressure at Wk 8 (Age <65 yr): 79.17 (9.58) mmHg
Mean (SD) Automated Office-Measured Systolic Blood Pressure at Wk 8 (Age <65 yr): 132.17 (11.13) mmHg
Mean (SD) Change from Baseline at Week 8 in Automated Office-Measured Diastolic Blood Pressure (Age <65 yr): −5.67 (5.02) mmHg
Mean (SD) Change from Baseline at Week 8 in Automated Office-Measured Systolic Blood Pressure (Age <65 yr): −6.92 (7.84) mmHg
Mean (SD) Automated Office-Measured Diastolic Blood Pressure at Wk 8 (Age ≥80 yr): 58.00 (7.07) mmHg
Mean (SD) Automated Office-Measured Systolic Blood Pressure at Wk 8 (Age ≥80 yr): 110.00 (1.41) mmHg
Mean (SD) Change from Baseline at Week 8 in Automated Office-Measured Diastolic Blood Pressure (Age ≥80 yr): −21.00 (9.90) mmHg
Mean (SD) Change from Baseline at Week 8 in Automated Office-Measured Systolic Blood Pressure (Age ≥80 yr): −40.00 (4.24) mmHg
Mean (SD) Automated Office-Measured Diastolic Blood Pressure at Wk 8 (BMI 25−30 kg/m^2): 71.75 (9.07) mmHg
Mean (SD) Change from Baseline at Week 8 in Automated Office-Measured Diastolic Blood Pressure (BMI 25−30 kg/m^2): −8.00 (7.56) mmHg
Mean (SD) Automated Office-Measured Diastolic Blood Pressure at Wk 8 (BMI <25 kg/m^2): 92.00 (NE) mmHg
Mean (SD) Change from Baseline at Week 8 in Automated Office-Measured Diastolic Blood Pressure (BMI <25 kg/m^2): 6.00 (NE) mmHg
Mean (SD) Automated Office-Measured Diastolic Blood Pressure at Wk 8 (BMI >30 kg/m^2): 75.00 (9.80) mmHg
Mean (SD) Change from Baseline at Week 8 in Automated Office-Measured Diastolic Blood Pressure (BMI >30 kg/m^2): −6.07 (9.01) mmHg
Mean (SD) Automated Office-Measured Systolic Blood Pressure at Wk 8 (BMI at baseline 25-30 kg/m^2): 125.50 (14.89) mmHg
Mean (SD) Change from Baseline at Week 8 in Automated Office-Measured Systolic Blood Pressure (BMI at baseline 25-30 kg/m^2): −23.88 (24.55) mmHg
Mean (SD) Automated Office-Measured Systolic Blood Pressure at Wk 8 (BMI at baseline <25 kg/m^2): 150.00 (NE) mmHg
Mean (SD) Change from Baseline at Week 8 in Automated Office-Measured Systolic Blood Pressure (BMI at baseline <25 kg/m^2): 2.50 (NE) mmHg
Mean (SD) Automated Office-Measured Systolic Blood Pressure at Wk 8 (BMI at baseline >30 kg/m^2): 132.43 (11.93) mmHg
Mean (SD) Change from Baseline at Week 8 in Automated Office-Measured Systolic Blood Pressure (BMI at baseline >30 kg/m^2): −12.07 (15.48) mmHg
Mean (SD) Automated Office-Measured Diastolic Blood Pressure at Wk 8 (Race Black or AA): 79.14 (8.49) mmHg
Mean (SD) Automated Office-Measured Systolic Blood Pressure at Wk 8 (Race Black or AA): 137.71 (13.50) mmHg
